Measured values taken from US11360080B2, “AhR-ROR-γt complex as a biomarker and therapeutic target for autoimmune disease and IL-17A-associated disease” (NATIONAL HEALTH RESEARCH INSTITUTES, priority 2018, dated 2022).
Where a name gives a salt, the structure may show the parent alone.

Columns and labels:
HGK (MAP4K4) = molecular target: T1, HGK (MAP4K4) (Homo sapiens, UniProt O95819); assay: In vitro kinase assay, recombinant kinase domain, MBP as substrate; type: biochemical
T1 construct: Recombinant proteins of kinase domains of various MAP4Ks were used
T1 sequence (O95819 25-289 limits assumed, species assumed): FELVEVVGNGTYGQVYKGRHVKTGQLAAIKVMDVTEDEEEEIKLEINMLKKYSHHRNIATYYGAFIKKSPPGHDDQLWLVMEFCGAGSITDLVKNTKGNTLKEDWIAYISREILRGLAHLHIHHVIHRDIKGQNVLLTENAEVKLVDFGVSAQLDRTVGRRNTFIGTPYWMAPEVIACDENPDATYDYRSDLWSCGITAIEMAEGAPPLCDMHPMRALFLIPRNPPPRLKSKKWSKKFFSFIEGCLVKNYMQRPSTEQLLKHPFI
Method: (§1) GLK kinase activity was determined by measuring the rate of ADP production in the in vitro kinase reaction using ADP-GLO™ Kinase Assay kit. For the kinase reaction, recombinant proteins of the GLK kinase-domain (1 μg) were incubated with recombinant proteins of kinase-dead PKCθ (K409W; 0.15 μg) plus ATP (0.1 mM) or myelin basic protein (MBP) plus ATP (0.1 mM) in kinase buffer (40 mM Tris-HCl, pH7.5.20 mM MgCl2, 0.1 mg/ml BSA, 10 mM DTT and 0.1 mM Na3VO4) for 30 min at room temperature. We studied whether GLK inhibitors also suppress cancer cell migration. […] Moreover, both C1 (verteporfin) and C2 (alexidine dihydrochloride) treatments suppressed tumor growth in the xenograft mouse model using TC-1 lung cancer cells (FIG. 15). To study whether GLK deficiency results in a reduction of lung cancer metastasis, we used a metastatic Lewis lung carcinoma (LLC) mouse model by tail vein injection of luciferase-expressing LLC (LLC/luc) cells. We identified two GLK inhibitors (verteporfin and alexidine dihydrochloride)) using cell-based assays and in vitro kinase assays. […] The dimerization of Flag-tagged GLK protein and GFP-GLK fusion protein was indeed blocked by the C1 (verteporfin) treatment (FIG. 16C). We treated the LLC/luc cells-containing mice with the GLK inhibitor C1 (verteporfin) or C2 (alexidine dihydrochloride) by intravenous injection every 3 days for 30 days (FIG. 16D). The luciferase activity of LLC/luc cells in the mice was detected by In Vivo Imaging System. The excised lungs were weighed and subjected to H&E staining. The luciferase activity of LLC/luc cells in the lung of injected mice was reduced by the treatment of C1 (verteporfin) or C2 (alexidine dihydrochloride) (FIGS. 16E-F). […] Moreover, the interaction between GLK and IQGAP1 in the lung tissues were inhibited by the treatment of C1 (verteporfin) or C2 (alexidine dihydrochloride) (FIG. 16H, upper panel), and IQGAP1 phosphorylation was in the lung tissues were inhibited (FIG. 16H, lower panel). […] Inhibition of kinase activity of GLK (MAP4K3) or other MAP4Ks was determined by in vitro kinase assays using myelin basic protein (MBP) as a substrate. Recombinant proteins of kinase domains of various MAP4Ks were used. C1, verteporfin: C2, alexidine dihydrochloride.

HPK1 (MAP4K1) = molecular target: T2, HPK1 (MAP4K1) (Homo sapiens, UniProt Q92918); assay: as above; type: biochemical
T2 construct: Recombinant proteins of kinase domains of various MAP4Ks were used
T2 sequence (Q92918 17-274 limits assumed, species assumed): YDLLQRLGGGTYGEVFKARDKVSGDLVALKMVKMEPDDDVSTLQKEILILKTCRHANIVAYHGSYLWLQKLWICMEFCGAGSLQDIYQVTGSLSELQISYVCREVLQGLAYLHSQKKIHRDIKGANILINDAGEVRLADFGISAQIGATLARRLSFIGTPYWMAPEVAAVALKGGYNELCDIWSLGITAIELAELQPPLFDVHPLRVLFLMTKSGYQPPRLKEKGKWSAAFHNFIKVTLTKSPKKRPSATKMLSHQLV
Method: as §1

KHS (MAP4K5) = molecular target: T3, KHS (MAP4K5) (Homo sapiens, UniProt Q9Y4K4); assay: as above; type: biochemical
T3 construct: Recombinant proteins of kinase domains of various MAP4Ks were used
T3 sequence (Q9Y4K4 20-277 limits assumed, species assumed): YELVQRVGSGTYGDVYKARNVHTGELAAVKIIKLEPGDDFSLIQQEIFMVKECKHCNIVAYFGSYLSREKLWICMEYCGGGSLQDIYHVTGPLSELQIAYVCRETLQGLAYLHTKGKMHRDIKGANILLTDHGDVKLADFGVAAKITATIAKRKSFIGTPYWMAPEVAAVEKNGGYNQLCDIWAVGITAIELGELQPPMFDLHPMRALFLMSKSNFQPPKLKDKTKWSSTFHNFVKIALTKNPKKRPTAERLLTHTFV
Method: as §1

human glioma U87 cells = assay: Transwell migration assay; type: cell-based; settings: C1 2 uM or 5 uM; C2 2 uM or uM
Method: (§2) Transwell migration assays of human glioma U87 cells, human pancreatic cancer Panc-1 cells, mouse lung cancer LL2 cells, or human hepatoma Huh-7 cells treated with the GLK inhibitor C1 (verteporfin) (a; 2 uM or 5 uM) or C2 (alexidine dihydrochloride) (b; 2 uM or uM). C1 denotes verteporfin; C2 denotes alexidine dihydrochloride.
(§3) For primary cell migration assays, 2×10^5 cells in […] of IMDM with 10% FBS were seeded into the upper chamber of transwells (8 μm pore size, Corning), and the lower chamber was loaded with […] of IMDM with 20% FBS. For cancer cell migration assays, 5×10^4 cells in 200 μl of RPMI 1640 with 10% FBS were seeded into the upper chamber of transwells (8 μm pore size, Corning), and the lower chamber was loaded with […] of RPMI 1640 with 10% FBS. After incubation at 37° C. for 24 h, cells migrating to the lower chamber were imaged and counted by bright-field microscopy following fixation with absolute methanol and staining with 1% crystal violet solution.

[1] = test system: human hepatoma Huh-7 cells; assay: Transwell migration assay; type: cell-based; settings: C1 2 uM or 5 uM; C2 2 uM or uM
Method: as §2, §3

[2] = test system: human pancreatic cancer Panc-1 cells; assay: Transwell migration assay; type: cell-based; settings: C1 2 uM or 5 uM; C2 2 uM or uM
Method: as §2, §3

[3] = test system: mouse lung cancer LL2 cells; assay: Transwell migration assay; type: cell-based; settings: C1 2 uM or 5 uM; C2 2 uM or uM
Method: as §2, §3

GLK−IQGAP1 complex = molecular target: T4, GLK−IQGAP1 complex (Mus musculus, UniProt Q99JP0); assay: In situ PLA in lung tissues of mice of the LLC/luc metastatic lung cancer model; type: in vivo
T4 construct: from tissue; host or cells: mouse lung tissue (LLC/luc metastatic lung cancer model)
T4 sequence (Q99JP0 whole entry, one chain of several): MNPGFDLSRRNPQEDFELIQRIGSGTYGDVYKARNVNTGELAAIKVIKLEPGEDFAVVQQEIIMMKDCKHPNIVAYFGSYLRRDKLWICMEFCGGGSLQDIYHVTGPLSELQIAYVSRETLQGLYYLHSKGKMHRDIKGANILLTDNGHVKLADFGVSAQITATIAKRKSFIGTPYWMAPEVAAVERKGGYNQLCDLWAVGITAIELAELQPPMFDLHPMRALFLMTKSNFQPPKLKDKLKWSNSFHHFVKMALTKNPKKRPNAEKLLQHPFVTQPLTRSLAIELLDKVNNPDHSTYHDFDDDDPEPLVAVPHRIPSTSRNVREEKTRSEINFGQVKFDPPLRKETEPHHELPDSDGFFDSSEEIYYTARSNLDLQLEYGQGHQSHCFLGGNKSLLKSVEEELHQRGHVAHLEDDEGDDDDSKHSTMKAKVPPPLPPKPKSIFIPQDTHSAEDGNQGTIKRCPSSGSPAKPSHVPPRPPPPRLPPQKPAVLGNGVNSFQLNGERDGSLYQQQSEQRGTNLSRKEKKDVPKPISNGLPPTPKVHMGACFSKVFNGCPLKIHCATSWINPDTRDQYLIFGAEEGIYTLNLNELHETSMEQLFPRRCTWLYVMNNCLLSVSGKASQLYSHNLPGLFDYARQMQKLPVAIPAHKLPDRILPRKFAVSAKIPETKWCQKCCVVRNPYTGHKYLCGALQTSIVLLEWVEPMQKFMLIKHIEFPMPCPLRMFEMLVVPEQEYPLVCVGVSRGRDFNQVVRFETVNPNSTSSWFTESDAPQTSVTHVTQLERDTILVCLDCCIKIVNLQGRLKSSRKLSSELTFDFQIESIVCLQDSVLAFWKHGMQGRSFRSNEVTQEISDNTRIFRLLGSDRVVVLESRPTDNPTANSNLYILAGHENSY
Text: (A) The molecular docking of GLK kinase domain structure with C1 (verteporfin). A three-dimensional structure model depicts the binding of C1 to the predicted GLK kinase domain containing phosphorylated Ser-170. The putative binding affinity was −7.4 kcal/mol. (B) The molecular docking of GLK kinase domain structure with C2 (alexidine dihydrochloride). A three-dimensional structure model depicts the binding of C2 to the predicted GLK kinase domain containing phosphorylated Ser-170. The putative binding affinity was −7.0 kcal/mol. (C) Co-immunoprecipitation (co-IP) of Flag-tagged GLK and GFP-fusion GLK using lysates of HEK293T cells co-transfected with Flag-GLK and GFP-GLK plasmids. Cells were treated with C1 (verteporfin) or C2 (alexidine dihydrochloride). (D) Administration of the GLK inhibitor C1 (0.556 nmole/g) or C2 (0.085 nmole/g) every 3 days for 30 days in the LLC/luc metastatic lung cancer mouse model. (E) The luciferase activity in mice treated with C1 (verteporfin), C2 (alexidine dihydrochloride), or vehicle was detected by IVIS Spectrum. (F) Luminescent intensity of photons emitted from LLC/luc cells in the images in (e) was quantified. (G) Representative immunohistochemistry of H&E in lung tissues from mice treated with C1 (verteporfin), C2, or vehicle. Scale bar, 0.5 cm. (H) In situ PLA assays of the interaction between GLK and IQGAP1 (upper panel) or phosphorylated IQGAP1 Ser-480 (lower panel) in lung tissues from mice treated with C1 (verteporfin), C2 (alexidine dihydrochloride), or vehicle in the LLC/luc metastatic lung cancer mouse model. Original magnification, ×40.
For experiments using human pulmonary tissues, tissue sections were deparafinized, antigen retrieved, and nonspecific-binding blocked, followed by in situ PLA assays using primary antibodies for IQGAP1 (1:4,000, CUSABIO) plus either GLK (1:3,000, mAb clone C3) or phospho-IQGAP1 Ser-480 (1:2,000, Allbio Science). The monoclonal antibody for phosphorylated IQGAP1 Ser-480 was generated by immunization of a mouse with phospho-peptides (human IQGAP1 epitope: ^473NTVWKQL[pS] SSVTGLT^487; SEQ ID NO: 32). The tissue sections were then incubated with species-specific secondary antibodies conjugated with oligonucleotides ([…]), followed by ligation and amplification reactions. The number of PLA signals for GLK−IQGAP1 complex or phosphorylated IQGAP1 per tissue (3.14 mm^2) was counted.

IC50 (HGK (MAP4K4)) [µM]	IC50 (HPK1 (MAP4K1)) [µM]	IC50 (KHS (MAP4K5)) [µM]	IQGAP1 (Ser-480) phosphorylation in the lung tissues (GLK−IQGAP1 complex)	interaction between GLK and IQGAP1 in the lung tissues (GLK−IQGAP1 complex)	Compound	migration of glioma cells (human glioma U87 cells)	migration of hepatoma cells [1]	migration of pancreatic cancer cells [2]	migration of lung cancer cells [3]
0.00492	0.00791	0.0439	inhibited	inhibited	C=Cc1c(C)c2cc3nc(cc4[nH]c(cc5nc(cc1[nH]2)C(C)=C5CCC(=O)O)c(CCC(=O)OC)c4C)[C@@]1(C)C3=CC=C(C(=O)OC)[C@H]1C(=O)OC [C1, verteporfin]	inhibited	inhibited	inhibited	inhibited
0.0218	0.00614	0.0183	inhibited	inhibited	CCCCC(CC)CNC(=N)NC(=N)NCCCCCCNC(=N)NC(=N)NCC(CC)CCCC (stereo not drawn) [C2, alexidine dihydrochloride]	inhibited	inhibited	inhibited	inhibited
